The experiment deals with CDK12 wt/CycK (Homo sapiens (Human), UniProt Q9NYV4). In words: Radiometric protein kinase assay (33PanQinase Activity Assay), Assay Condition A (thiol containing conditions). Type of experiment: biochemical. On the procedure: Example 1—Assay Condition A (Thiol Containing Conditions)
Objective: The IC50 profile of test compounds was determined using three protein kinases.
Test compounds: The compounds were provided as pre-weighed powders in vials. The compounds were dissolved to 1×10^−02M by adding DMSO. 100 μl of each of the resulting stock solutions were transferred into column 2 of four 96 well “master plates”.
Prior to testing, the 1×10^−02M stock solutions in column 2 of the master plates were subjected to a serial, semi-logarithmic dilution using 100% DMSO as a solvent. […] Column 1 and 7 were filled with 100% DMSO as controls. Subsequently, 2×10 μl from each well of the serial diluted copy plates were aliquoted with a 96 channel pipettor into two identical sets of “compound dilution plates”.
In the process, 90 μl H2O were added to each well of a set of compound dilution plates. To minimize potential precipitation, the H2O was added to each plate only a few minutes before the transfer of the compound solutions into the assay plates. Each plate was shaken thoroughly, resulting in a “compound dilution plate/10% DMSO”.
For the assays, 5 μl solution from each well of the compound dilution plates/10% DMSO were transferred into the assay plates. The final volume of the assay was 50 μl. All compounds were tested at 10 final assay concentrations in the range from 1×10^−04M to 3×10^−09M, in singlicate. The final DMSO concentration in the reaction cocktails was 1% in all cases.
Recombinant protein kinases: All protein kinases were expressed in Sf9 insect cells or in E. coli as recombinant GST-fusion proteins or His-tagged proteins, either as full-length or enzymatically active fragments. All kinases were produced from human cDNAs and purified by either GSH-affinity chromatography or immobilized metal. Affinity tags were removed from a number of kinases during purification. The purity of the protein kinases was examined by SDS-PAGE/Coomassie staining, the identity was checked by mass spectroscopy.
Protein kinase assay: A radiometric protein kinase assay (^33PanQinase® Activity Assay) was used for measuring the kinase activity of the three protein kinases. All kinase assays were performed in 96-well FlashPlates™ from PerkinElmer (Boston, Mass., USA) in a 50 μl reaction volume. The reaction cocktail was pipetted in four steps in the following order: • 20 μl of assay buffer (standard buffer) • 5 μl of ATP solution (in H2O) • 5 μl of test compound (in 10% DMSO) • 20 μl enzyme/substrate mix
The following amounts of enzyme and substrate were used per well:
The reaction cocktails were incubated at 30° C. for 60 minutes. The reaction was stopped with 50 μl of 2% (v/v) H3PO4, plates were aspirated and washed two times with 200 μl 0.9% (w/v) NaCl. Incorporation of ^33Pi was determined with a microplate scintillation counter (Microbeta, Wallac). All assays were performed with a BeckmanCoulter/SAGIAN™ Core System.
Evaluation of raw data: The median value of the counts in column 1 (n=8) of each assay plate was defined as “low control”. This value reflects unspecific binding of radioactivity to the plate in the absence of a protein kinase but in the presence of the substrate. The median value of the counts in column 7 of each assay plate (n=8) was taken as the “high control”, i.e. full activity in the absence of any inhibitor. The difference between high and low control was taken as 100% activity.
As part of the data evaluation the low control value from a particular plate was subtracted from the high control value as well as from all 80 “compound values” of the corresponding plate. The residual activity (in %) for each well of a particular plate was calculated by using the following formula: Res. Activity (%)=100×[(cpm of compound−low control)/(high control−low control)]
The residual activities for each concentration and the compound IC50 values were calculated using Quattro Workflow V3.1.1 (Quattro Research GmbH, Munich, Germany).

[1] abbreviates: thiol containing conditions (1.2 mM DTT), ATP 0.3 μM, read-out: CDK12 IC50 Condition A.

pIC50: −log10 of the molar value. Read-outs that look alike come from different tables or passages of the source.

A word on the pIC50: it is −log10 of the IC50, conventionally taken in molar units.

CDK12 wt/CycK, sequence (Q9NYV4 whole entry): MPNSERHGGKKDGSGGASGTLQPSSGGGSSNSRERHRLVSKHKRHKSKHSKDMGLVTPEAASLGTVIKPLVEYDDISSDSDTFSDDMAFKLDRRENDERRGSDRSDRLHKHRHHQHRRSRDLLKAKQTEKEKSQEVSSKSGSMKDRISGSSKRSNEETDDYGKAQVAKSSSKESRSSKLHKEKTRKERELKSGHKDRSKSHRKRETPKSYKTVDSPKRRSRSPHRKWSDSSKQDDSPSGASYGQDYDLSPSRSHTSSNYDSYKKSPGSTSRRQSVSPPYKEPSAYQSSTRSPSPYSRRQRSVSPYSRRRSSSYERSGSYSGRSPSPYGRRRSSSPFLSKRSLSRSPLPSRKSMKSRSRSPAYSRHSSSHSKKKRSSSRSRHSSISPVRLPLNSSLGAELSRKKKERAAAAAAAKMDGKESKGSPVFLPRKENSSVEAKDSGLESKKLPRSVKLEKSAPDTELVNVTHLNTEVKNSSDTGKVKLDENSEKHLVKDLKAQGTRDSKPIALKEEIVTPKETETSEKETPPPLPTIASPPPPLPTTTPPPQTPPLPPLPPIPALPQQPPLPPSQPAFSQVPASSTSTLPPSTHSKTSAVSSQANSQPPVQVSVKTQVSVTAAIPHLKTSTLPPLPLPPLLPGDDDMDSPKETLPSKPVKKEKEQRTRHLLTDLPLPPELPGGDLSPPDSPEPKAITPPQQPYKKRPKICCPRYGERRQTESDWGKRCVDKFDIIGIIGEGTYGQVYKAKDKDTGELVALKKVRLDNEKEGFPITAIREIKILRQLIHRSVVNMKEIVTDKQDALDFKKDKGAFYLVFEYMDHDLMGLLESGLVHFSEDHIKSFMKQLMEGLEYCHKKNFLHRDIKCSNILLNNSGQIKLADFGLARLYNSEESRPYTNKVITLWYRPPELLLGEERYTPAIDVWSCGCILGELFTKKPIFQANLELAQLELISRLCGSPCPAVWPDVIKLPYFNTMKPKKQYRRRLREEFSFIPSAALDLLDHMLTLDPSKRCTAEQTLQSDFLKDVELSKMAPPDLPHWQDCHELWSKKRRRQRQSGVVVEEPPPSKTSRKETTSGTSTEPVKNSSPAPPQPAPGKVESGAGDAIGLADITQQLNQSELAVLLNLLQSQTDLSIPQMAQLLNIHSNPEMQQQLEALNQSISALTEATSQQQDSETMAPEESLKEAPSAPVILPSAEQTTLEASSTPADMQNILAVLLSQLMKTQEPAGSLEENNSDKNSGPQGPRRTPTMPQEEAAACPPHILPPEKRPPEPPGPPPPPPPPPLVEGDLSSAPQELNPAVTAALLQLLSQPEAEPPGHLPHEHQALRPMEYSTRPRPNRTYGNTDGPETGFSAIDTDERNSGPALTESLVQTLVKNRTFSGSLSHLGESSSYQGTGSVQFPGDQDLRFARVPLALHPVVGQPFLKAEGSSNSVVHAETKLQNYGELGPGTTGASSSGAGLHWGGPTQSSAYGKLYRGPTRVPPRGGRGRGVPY
CDK12 wt/CycK, sequence (O75909 whole entry partner): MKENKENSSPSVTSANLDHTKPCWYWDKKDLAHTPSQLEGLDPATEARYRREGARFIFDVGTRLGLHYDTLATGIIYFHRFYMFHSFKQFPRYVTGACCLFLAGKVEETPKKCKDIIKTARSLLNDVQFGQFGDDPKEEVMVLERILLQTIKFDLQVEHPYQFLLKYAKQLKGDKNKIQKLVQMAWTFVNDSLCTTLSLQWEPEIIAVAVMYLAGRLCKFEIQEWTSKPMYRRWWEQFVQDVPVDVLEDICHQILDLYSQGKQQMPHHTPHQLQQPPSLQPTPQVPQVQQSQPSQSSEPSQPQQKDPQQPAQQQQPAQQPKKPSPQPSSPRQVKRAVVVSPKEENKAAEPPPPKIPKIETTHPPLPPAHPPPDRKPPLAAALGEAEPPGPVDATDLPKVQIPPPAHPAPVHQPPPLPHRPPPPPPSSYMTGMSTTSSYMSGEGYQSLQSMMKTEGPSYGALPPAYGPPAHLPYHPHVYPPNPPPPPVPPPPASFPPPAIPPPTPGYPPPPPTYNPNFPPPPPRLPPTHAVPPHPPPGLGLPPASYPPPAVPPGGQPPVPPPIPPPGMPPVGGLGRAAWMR

With `C=CC(=O)N(C)c1ccc(C(=O)N2CC[C@@H](Nc3ncc(C#N)cn3)C2)cc1` [Example 70, (R)—N-(4-(3-((5-cyanopyrimidin-2-yl)amino)pyrrolidine-1-carbonyl)phenyl)-N-methylacrylamide], the negative logarithm of the IC50 (pIC50) under setting [1] was 6.00 to 7.00.
The same measure, in the same setting: as for `C=CC(=O)N(C)c1ccc(C(=O)N2CC[C@@H](Nc3ncc(Cl)c(OC)n3)C2)nc1` [Example 77, (R)—N-(6-(3-((5-chloro-4-methoxypyrimidin-2-yl)amino)pyrrolidine-1-carbonyl)pyridin-3-yl)-N-methylacrylamide], the figure is 6.00 to 7.00.
Still for that read-out and setting: for `C=CC(=O)Nc1ccc(C(=O)N2CC[C@@H](Nc3ncc(Cl)cn3)C2)cc1` [Example 87, (R)—N-(4-(3-((5-chloropyrimidin-2-yl)amino)pyrrolidine-1-carbonyl)phenyl)acrylamide] the value was 6.00 to 7.00; for `C=CC(=O)Nc1ccc(C(=O)N2CC[C@@H](Nc3ncc(Cl)c(OCCOC)n3)C2)cc1` [Example 88, (R)—N-(4-(3-((5-chloro-4-(2-methoxyethoxy)pyrimidin-2-yl)amino)pyrrolidine-1-carbonyl)phenyl)acrylamide], more than 7.00.
For `C=CC(=O)Nc1ccc(C(=O)N2CC[C@@H](Nc3ncc(Cl)c(N4CCC4)n3)C2)cc1` [Example 89, (R)—N-(4-(3-((4-(azetidin-1-yl)-5-chloropyrimidin-2-yl)amino)pyrrolidine-1-carbonyl)phenyl)acrylamide], the pIC50 under setting [1] was 6.00 to 7.00.
Same read-out and setting: as for `C=CC(=O)Nc1ccc(C(=O)N2CC[C@@H](Nc3ncc(Cl)c(N)n3)C2)cc1` [Example 90, (R)—N-(4-(3-((4-amino-5-chloropyrimidin-2-yl)amino)pyrrolidine-1-carbonyl)phenyl)acrylamide], the figure is more than 7.00; as for `C=CC(=O)Nc1ccc(C(=O)N2CC[C@@H](Nc3ncc(C(F)(F)F)c(N)n3)C2)cc1` [Example 91, (R)—N-(4-(3-((4-amino-5-(trifluoromethyl)pyrimidin-2-yl)amino)pyrrolidine-1-carbonyl)phenyl)acrylamide], more than 7.00; as for `C=CC(=O)Nc1ccc(C(=O)N2CC[C@@H](Nc3ncc(Cl)c(C(F)(F)F)n3)C2)cc1` [Example 92, (R)—N-(4-(3-((5-chloro-4-(trifluoromethyl)pyrimidin-2-yl)amino)pyrrolidine-1-carbonyl)phenyl)acrylamide], more than 7.00.
Still for that read-out and setting: as for `[2H]C([2H])([2H])Oc1nc(N[C@@H]2CCN(C(=O)c3ccc(NC(=O)C=C)cc3)C2)ncc1Cl` [Example 93, (R)—N-(4-(3-((5-chloro-4-(trideuteromethoxy)pyrimidin-2-yl)amino)pyrrolidine-1-carbonyl)phenyl)acrylamide], the figure is more than 7.00.
For the compound `C=CC(=O)Nc1nc(C(=O)N2CC[C@@H](Nc3ncc(Cl)cn3)C2)cs1` [Example 94, (R)—N-(4-(3-((5-chloropyrimidin-2-yl)amino)pyrrolidine-1-carbonyl)thiazol-2-yl)acrylamide], the negative logarithm of the IC50 (pIC50) under setting [1] is 6.00 to 7.00.
As to `C=CC(=O)Nc1ccc(C(=O)N2CC[C@@H](Nc3ncc(Cl)c(Oc4ccccc4)n3)C2)cc1` [Example 95, (R)—N-(4-(3-((5-chloro-4-phenoxypyrimidin-2-yl)amino)pyrrolidine-1-carbonyl)phenyl)acrylamide], the negative logarithm of the IC50 (pIC50) under setting [1] was more than 7.00.
The same measure, in the same setting: as for `C=CC(=O)Nc1ccc(C(=O)N2CC[C@@H](Nc3ncc(Cl)c(OCC)n3)C2)cc1` [Example 96, (R)—N-(4-(3-((5-chloro-4-ethoxypyrimidin-2-yl)amino)pyrrolidine-1-carbonyl)phenyl)acrylamide], the figure is more than 7.00; as for `C=CC(=O)Nc1ccc(C(=O)N2CC[C@@H](Nc3ncc(Cl)c(O)n3)C2)cc1` [Example 97, (R)—N-(4-(3-((5-chloro-4-hydroxypyrimidin-2-yl)amino)pyrrolidine-1-carbonyl)phenyl)acrylamide], 4.00 to 4.52.
Same read-out and setting: for `CN(C)C/C=C/C(=O)Nc1ccc(C(=O)N2CC[C@@H](Nc3ncc(Cl)cn3)C2)cc1` [Example 98, (R,E)-N-(4-(3-((5-chloropyrimidin-2-yl)amino)pyrrolidine-1-carbonyl)phenyl)-4-(dimethylamino)but-2-enamide] the value was 5.00 to 6.00; for `C=CC(=O)Nc1ccc(C(=O)N2CC[C@@H](Nc3ncc(C4CC4)c(OC)n3)C2)cc1` [Example 99, (R)—N-(4-(3-((5-cyclopropyl-4-methoxypyrimidin-2-yl)amino)pyrrolidine-1-carbonyl)phenyl)acrylamide], 6.00 to 7.00; for `C=CC(=O)Nc1nc(C(=O)N2CC[C@@H](Nc3ncc(C(F)(F)F)cn3)C2)cs1` [Example 100, (R)—N-(4-(3-((5-(trifluoromethyl)pyrimidin-2-yl)amino)pyrrolidine-1-carbonyl)thiazol-2-yl)acrylamide], 6.00 to 7.00.
On the same count and under the same terms, for `C=CC(=O)Nc1nc(C(=O)N2CCC[C@@H](Nc3ncc(Cl)c(OC)n3)C2)cs1` [Example 101, (R)—N-(4-(3-((5-chloro-4-methoxypyrimidin-2-yl)amino)piperidine-1-carbonyl)thiazol-2-yl)acrylamide] the value was 6.00 to 7.00; for `C=CC(=O)Nc1ccc(C(=O)N2CC[C@@H](Nc3ncc(Cl)c(OCCC#N)n3)C2)cc1` [Example 102, (R)—N-(4-(3-((5-chloro-4-(2-cyanoethoxy)pyrimidin-2-yl)amino)pyrrolidine-1-carbonyl)phenyl)acrylamide], more than 7.00.
For the compound `C=CC(=O)Nc1ccc(C(=O)N2CC[C@@H](Nc3ncc(Cl)cn3)C2)cc1OC1CCOC1` (stereo partly drawn) [Example 103, N-(4-((R)-3-((5-chloropyrimidin-2-yl)amino)pyrrolidine-1-carbonyl)-2-((tetrahydrofuran-3-yl)oxy)phenyl)acrylamide], the pIC50 under setting [1] is 6.00 to 7.00.
On the same count and under the same terms, as for `C=CC(=O)N(C)c1ccc(C(=O)N2CC[C@@H](Nc3ncc(Br)cn3)C2)cc1` [Example 104, (R)—N-(4-(3-((5-bromopyrimidin-2-yl)amino)pyrrolidine-1-carbonyl)phenyl)-N-methylacrylamide], the figure is more than 7.00; as for `C=CC(=O)Nc1cccc(C(=O)N2CC[C@@H](Nc3ncc(Cl)c(OC)n3)C2)c1` [Example 105, (R)—N-(3-(3-((5-chloro-4-methoxypyrimidin-2-yl)amino)pyrrolidine-1-carbonyl)phenyl)acrylamide], 6.00 to 7.00.
In the case of `C=CC(=O)Nc1cccc(C(=O)N2CCC[C@@H](Nc3ncc(Cl)c(OC)n3)C2)c1` [Example 106, (R)—N-(3-(3-((5-chloro-4-methoxypyrimidin-2-yl)amino)piperidine-1-carbonyl)phenyl)acrylamide], the pIC50 under setting [1] is 4.52 to 5.00.
For `C=CC(=O)Nc1ccc(C(=O)N2CC[C@@H](Nc3ncc(CC(C)C)cn3)C2)cc1` [Example 107, (R)—N-(4-(3-((5-isobutylpyrimidin-2-yl)amino)pyrrolidine-1-carbonyl)phenyl)acrylamide], the pIC50 under setting [1] is 5.00 to 6.00.
Same read-out and setting: as for `C=CC(=O)Nc1ccc(C(=O)N2CC[C@](C)(Nc3ncc(Cl)cn3)C2)cc1` [Example 108, (S)—N-(4-(3-((5-chloropyrimidin-2-yl)amino)-3-methylpyrrolidine-1-carbonyl)phenyl)acrylamide], the figure is 4.00 to 4.52.
`C=CC(=O)Nc1ccc(C(=O)N2CC[C@@](C)(Nc3ncc(Cl)cn3)C2)cc1` [Example 109, (R)—N-(4-(3-((5-chloropyrimidin-2-yl)amino)-3-methylpyrrolidine-1-carbonyl)phenyl)acrylamide] gave a pIC50 of 4.52 to 5.00.
`C=CC(=O)Nc1cc(C(=O)N2CC[C@@H](Nc3ncc(Cl)cn3)C2)nn1C` [Example 110, (R)—N-(3-(3-((5-chloropyrimidin-2-yl)amino)pyrrolidine-1-carbonyl)-1-methyl-1H-pyrazol-5-yl)acrylamide]: under setting [1], the pIC50 is 5.00 to 6.00.

The values above are taken from patent US10894788B2, “Inhibitors of cyclin-dependent kinases” (Kinnate Biopharma Inc., priority 2018, dated 2021).
